From patent US20210244790A1 (priority 2018, published 2021) come the findings set out here.

Molecules are shown by their SMILES. ≈ marks a conversion by molar mass, not a printed value. Read-outs that look alike come from different tables or passages of the source. Numbered stars: 1 amine (or outer) side, 2 acyl side, 3 side chain; on linkers, the order of the positions; unused ones are H or OH. Bridge positions count the residues as written; N and C are the ends. Square brackets hold non-standard residues; d marks the D form. Peptide text beside a SMILES is read from it. ξ: configuration not given here. ξAsn(3ξ-OH) = NC(=O)C(O)C(N)C(=O)O; X1 = CC(C)CCCC(CC(=O)[*:1])O[*:2]; NMeF = CN[CH](Cc1ccccc1)C(=O)O; NMeV = CN[CH](C(=O)O)C(C)C; Orn = NCCC[CH](N)C(=O)O

Assay [1] relates to MRSA Used in Animal Model. The assay can be described thus: microbe, parasite or virus in culture. Conditions: Staphylococcus aureus.
For assay [2], the system named is Propionibacterium acnes. The assay can be described thus: Number of cells after 48 hour anaerobic incubation in 5% FBS-supplemented GAM medium. Type of assay: cell-based. To be noted: lotilibcin 0.1 μg/mL alone, initial 2.8 × 10^6.
Assay [3] relates to methicillin-resistant Staphylococcus aureus (MRSA) on the skin. The assay can be described thus: Efficacy evaluation test by single dose topical application in murine MRSA skin infection model. In kind it is in vivo, mice. Conditions: preliminary test.
For assay [4], the system named is MRSA. The assay can be described thus: Additional cross MIC test using 5% FBS-added CAMHB, with FIC index. Conditions: concentration of each component in the combination.
The subject of assay [5] is MRSA.
For assay [6], the system named is Propionibacterium acnes. The assay can be described thus: microbe, parasite or virus in culture. To be noted: Cutibacterium acnes, read-out: antibacterial activity (MIC) of boric acid alone.
Assay [7] has as its system MRSA. The assay can be described thus: microbe, parasite or virus in culture. Conditions: Staphylococcus aureus, read-out: MIC in the presence of 5% FBS, Anti-MRSA activity of 3rd generation.
The test system of assay [8] is MRSA. Conditions: CAMHB with 5% FBS.
Assay [9] concerns clinically isolated MRSA strain. The assay can be described thus: microbe, parasite or virus in culture. Conditions: Staphylococcus aureus, read-out: anti-MRSA activity (MIC) of boric acid alone.
Setting [10] is: read-out: Minimum Inhibitory Concentration Against MRSA Used in Animal Model (MIC), CAMHB, no 5% FBS.
[11] abbreviates: read-out: Minimum Inhibitory Concentration Against MRSA Used in Animal Model (MIC), CAMHB, with 5% FBS.

As to `C/C(=C\C(=O)OCCCCCCCCC(=O)O)C[C@@H]1OC[C@H](C[C@@H]2O[C@H]2[C@@H](C)[C@H](C)O)[C@@H](O)[C@H]1O` [Mupirocin, mupirocin], the MIC in [1] (setting [10]) was determined as 0.125 µg/mL (≈ 0.00025 mM); in [1] (setting [11]), 0.5 µg/mL (≈ 0.000999 mM).
Consider `CC(C)CCCC1CC(=O)NC(CO)C(=O)NC(C(O)C(N)=O)C(=O)NC(CO)C(=O)NCC(=O)N(C)C(Cc2ccccc2)C(=O)NC(CC(C)C)C(=O)NC(CCCN)C(=O)NC(CCC(=O)O)C(=O)NC(CC(N)=O)C(=O)NC(Cc2c[nH]c3ccccc23)C(=O)NC(CCCN)C(=O)N(C)C(C(C)C)C(=O)O1` (centres unmarked) [Lotilibcin, lotilibcin] (S[ξAsn(3ξ-OH)]SG[NMeF]L[Orn]ENW[Orn][NMeV]; linker N-C via X1; configuration not given here), for which the “Number of cells After 48 hours” value with Propionibacterium acnes [2] is listed as 1.3 × 10^6 CFU/mL. For the same compound, the “antibacterial efficacy (change in number of CFUs in skin tissue)” value in assay [3] (0.5% lotilibcin alone, single topical dose) was “comparable to that of 2% mupirocin”; in assay [3] (lotilibcin alone 0.02%, 0.2%, 0.5%, single topical dose, 24 hours), “dose-dependent efficacy”. Moreover, the “Antibacterial activity of lotilibcin (MIC)” value in the assay on Bacillus anthracis (No serum) amounted to 1.0 µg/mL; in the assay with Bacillus anthracis (With serum (5% FBS)), 0.1 µg/mL. Further, the “point of synergy (concentration) in table 7” value with MRSA [4] was determined as 0.03 µg/mL. Also, the “MIC in the presence of 5% FBS, Anti-MRSA activity of 1st generation” value with MRSA [5] (1st generation bacteria) stood at 0.25 µg/mL. Moreover, the “MIC in the presence of 5% FBS, Anti-MRSA activity of 3rd generation” value in the assay with MRSA [5] (3rd generation bacteria, test substance alone) stood at 32 µg/mL.
On to `OB(O)O` [Boric acid], for which, in [3] (1% boric acid alone, single topical dose), the “change in the number of cells (CFUs in skin tissue)” value is “on the same level as or worse than the result of the negative control”. The “antibacterial efficacy in animal infection models” value in assay [3] (boric acid alone 0.1% to 1%) is “no antibacterial efficacy”. For the same compound, the MIC in assay [1] (setting [10]) was 2500 µg/mL (≈ 40.4 mM); in assay [1] (setting [11]), 2500 µg/mL (≈ 40.4 mM); in [1] (read-out: concentration exhibiting antibacterial activity (MIC), used solely, not influenced by presence or absence of serum component (FBS)), 2500 µg/mL (≈ 40.4 mM); in the assay on Propionibacterium acnes [6] it was 1250 µg/mL (≈ 20.2 mM); in the assay with MRSA [7] it was 5000 µg/mL; in assay [9], 2500 µg/mL (≈ 40.4 mM). Also, the “minimum concentration of boric acid necessary for enhancing the anti-MRSA activity of lotilibcin” value in the assay with MRSA [8] is 100 µg/mL. In the assay with MRSA [4], the “point of synergy (concentration) in table 7” value stood at 313 µg/mL.
